According to patent publication US20240043860A1, “NOVEL HYDROXYPHENYLPYRUVATE DIOXYGENASE POLYPEPTIDES AND METHODS OF USE THEREOF” (Syngenta Crop Protection AG, priority 2020, published 2024):
pIC50: −log10 of the molar value.

Legend:
[1] = target: HPPD variant AVESA V200 (SEQ ID NO: 5) (Avena sativa, UniProt A0ACD5V6K6, A327R/I340E/L359M/V218I/V260A); assay: biochemical
Procedure: (§1) 25 ul of the overnight cultures were inoculated into fresh 96-deepwell block containing 1 ml Formedium Autoinduction Media (AIM). The AIM cultures were grown for 3h at 37° C. (900rpm) and then transferred to 20° C. overnight (900rpm) to allow protein expression. The overnight cultures were centrifuged and 500 ul of Cellytic B (Sigma Aldrich) was added to resuspend the cell pellets. The coupled HGO assay (Siehl et al, 2014) is used to generate IC50 values for the HPPD variants of interest.
E. coli BL21 (DE3) cells were transformed with a pET24a vector containing a C-terminally his-tagged Arabidopsis HGO gene, grown and induced overnight as described for the HPPD variants above. […]
The coupled HGO assay is carried out by adding 10 ul of HPPD extract to a 96-well plate and then adding 40 ul of reaction buffer (50 mM Bis Tris Propane, pH7.0, 25 mM sodium-L-ascorbate, 400μM mercaptoethanol, 50 μM Fe(II)SO4). […] 200 ul of HPP/HGO (197 μM hydroxyphenylpyruvic acid, 16 μl/ml Homogentisic Acid Oxidase in reaction buffer as described above) buffer is then added to the well and the reaction is regularly monitored (e.g. every 30 seconds-5 minutes) for absorbance at 330 nm for a given time period (e.g., for between 15-60 minutes). […]

[2] = tested on: HPPD variant AVESA V201 (SEQ ID NO: 8); assay type: biochemical, Avena sativa; conditions: SEQ ID NO: 8 compared to control SEQ ID NO: 122
Procedure: as §1
(§2) E. coli BL21 (DE3) cells were transformed with a pET24a vector containing a C-terminally his-tagged Arabidopsis HGO gene, grown and induced overnight as described for the HPPD variants above. The cell pellet was resuspended in phosphate buffered saline at pH 7.4 containing 10% Glycerol, 1mm Tris[2-carboxyethyl] phosphine-HCl (TCEP) plus 30 mM Imidazole and lysed using lysozyme/benzonase. The extract was clarified by low speed centrifugation and purified in the same buffer down a 1 ml His Gravitrap column. The bound HGO was eluted in 0.25M imidazole and the fractions pooled and beaded into liquid nitrogen. All procedures apart from the centrifugation and beading steps were carried out under a nitrogen atmosphere.
(§3) The coupled HGO assay is carried out by adding 10 ul of HPPD extract to a 96-well plate and then adding 40 ul of reaction buffer (50 mM Bis Tris Propane, pH7.0, 25 mM sodium-L-ascorbate, 400μM mercaptoethanol, 50 μM Fe(II)SO4). The plates are left to incubate for 5 minutes on ice. […] 200 ul of HPP/HGO (197 μM hydroxyphenylpyruvic acid, 16 μl/ml Homogentisic Acid Oxidase in reaction buffer as described above) buffer is then added to the well and the reaction is regularly monitored (e.g. every 30 seconds-5 minutes) for absorbance at 330 nm for a given time period (e.g., for between 15-60 minutes). The data can then be used to calculate the IC50 value for each HPPD variant of interest.

[3] = tested on: HPPD variant APESV V200 (SEQ ID NO: 6); assay: coupled HGO assay; assay type: biochemical, Apera spica-venti
Procedure: (§4) DNA sequences (SEQ ID NOs: 65-118, 128, 130, 131, and 133), synthesized for expression in E. coli, by GeneWiz (USA) to encode HPPD variants (SEQ ID NOs: 5-58, 122, 124, 125 and 127) derived from either Avena sativa (SEQ ID NOs: 122, 124), Alopecurus myosuroides (SEQ ID NO: 126) or Apera spica-venti (SEQ ID NOs: 123, 125) were transformed into E coli BL21 (DE3) (New England Biolabs) and grown in 0.5 ml Terrific broth +50 ug/ml Kanamycin media in a 96-deepwell block overnight (37° C., 900rpm). 25 ul of the overnight cultures were inoculated into fresh 96-deepwell block containing 1 ml Formedium Autoinduction Media (AIM). The AIM cultures were grown for 3h at 37° C. (900rpm) and then transferred to 20° C. overnight (900rpm) to allow protein expression. The overnight cultures were centrifuged and 500 ul of Cellytic B (Sigma Aldrich) was added to resuspend the cell pellets. The coupled HGO assay (Siehl et al, 2014) is used to generate IC50 values for the HPPD variants of interest.
as §2, §3

[4] = tested on: HPPD variant APESV V209 (SEQ ID NO: 18); assay: coupled HGO assay; assay type: biochemical, Apera spica-venti
Procedure: as §4, §2, §3

[5] = tested on: HPPD variant ALOME V200 (SEQ ID NO: 7); assay: coupled HGO assay; assay type: biochemical, Alopecurus myosuroides
Procedure: as §4, §2, §3

[6] = tested on: HPPD variant ALOME V209 (SEQ ID NO: 19); assay: coupled HGO assay; assay type: biochemical, Alopecurus myosuroides
Procedure: as §4, §2, §3

[7] = tested on: HPPD variant APESV V208 (SEQ ID NO: 15); assay: coupled HGO assay; assay type: biochemical, Apera spica-venti
Procedure: as §4, §2, §3

Sequence of HPPD variant AVESA V200 (SEQ ID NO: 5) (A0ACD5V6K6 entry or part of it V218I/V260A/A327R/I340E/L359M): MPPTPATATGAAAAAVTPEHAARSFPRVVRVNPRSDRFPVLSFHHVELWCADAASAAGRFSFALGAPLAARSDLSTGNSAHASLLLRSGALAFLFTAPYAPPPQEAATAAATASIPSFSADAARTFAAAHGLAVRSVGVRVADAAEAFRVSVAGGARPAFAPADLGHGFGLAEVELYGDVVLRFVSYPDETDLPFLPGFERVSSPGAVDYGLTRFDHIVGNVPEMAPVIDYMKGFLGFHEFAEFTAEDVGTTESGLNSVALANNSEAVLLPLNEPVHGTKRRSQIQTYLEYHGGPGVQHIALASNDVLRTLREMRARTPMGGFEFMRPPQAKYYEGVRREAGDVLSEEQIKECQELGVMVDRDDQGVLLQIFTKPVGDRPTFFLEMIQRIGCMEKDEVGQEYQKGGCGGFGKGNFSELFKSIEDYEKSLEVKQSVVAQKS

| Compound | pIC50 [1] | increase of the IC50 value [2] | pIC50 [3] | pIC50 [4] | pIC50 [5] | pIC50 [6] | pIC50 [7] |
| --- | --- | --- | --- | --- | --- | --- | --- |
| Cn1nnnc1NC(=O)c1ccc(C(F)(F)F)nc1-n1cncn1 [Herbicide D, N-(1-methyltetrazol-5-yl)-2-(1,2,4-triazol-1-yl)-6-(trifluoromethyl)pyridine-3-carboxamide] | 4.20 | ~80 fold | 4.07 | 4.02 | 4.11 | 4.01 | – |
| bicyclopyrone | – | – | – | – | – | – | 6.00 |
